From patent publication US20240109918A1, “HETEROCYCLIC COMPOUNDS AND USES THEREOF” (Kumquat Biosciences Inc., priority 2022, published 2024)

Experiments:
[1] = biological target: T1, KRASG12D (Homo sapiens, UniProt P01116, G12D); assay: Bio-Biochem-PPI-HTRF Ras-SOS1 interaction assay (KRAS G12D); format: biochemical; details: 5 nM
T1 construct: made in house; host or cells: E. coli BL21 (DE3)
Outline: (§1)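 Compounds tested in duplicate (10 μM to 0.01 μM) for disruption of His-hSOS1 binding to GST-tagged wild-type or G12D K-Ras in HEPES pH 7.4 buffer. TR-FRET read (Eu donor, XL665 acceptor) after about 10 min or longer; IC50 derived from the 665/620 nm emission ratio.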

[2] = biological target: T2, KRASwt (Homo sapiens, UniProt P01116); assay: Bio-Biochem-PPI-HTRF Ras-SOS1 interaction assay (KRAS wt); format: biochemical; details: 5 nM
T2 construct: made in house; host or cells: E. coli BL21 (DE3)
T2 sequence (P01116 1-188 isoform P01116-2): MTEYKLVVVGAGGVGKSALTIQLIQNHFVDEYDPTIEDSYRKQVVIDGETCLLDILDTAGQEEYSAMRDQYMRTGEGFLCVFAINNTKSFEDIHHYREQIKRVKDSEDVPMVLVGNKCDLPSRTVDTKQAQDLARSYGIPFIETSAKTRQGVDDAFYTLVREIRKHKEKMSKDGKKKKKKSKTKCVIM
Outline: as §1

T1 sequence (P01116 1-188 isoform P01116-2 G12D): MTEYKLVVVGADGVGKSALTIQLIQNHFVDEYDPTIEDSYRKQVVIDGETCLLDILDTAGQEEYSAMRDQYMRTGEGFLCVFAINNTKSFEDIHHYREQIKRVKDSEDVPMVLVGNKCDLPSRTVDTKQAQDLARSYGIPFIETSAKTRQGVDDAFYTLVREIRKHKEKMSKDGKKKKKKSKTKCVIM

SMILES	IC50 [1] [µM]	IC50 [2] [µM]
Nc1nc2c(-c3c(Cl)cc4c(N5CCOC6(C5)CN(S(=O)(=O)F)C6)nc(OC[C@@]56CCCN5C[C@H](F)C6)nc4c3F)ccc(F)c2s1 [compound 179, 8-(7-(2-amino-7-fluorobenzo[d]thiazol-4-yl)-6-chloro-8-fluoro-2-(((2R,7aS)-2-fluorotetrahydro-1H-pyrrolizin-7a(5H)-yl)methoxy)quinazolin-4-yl)-5-oxa-2,8-diazaspiro[3.5]nonane-2-sulfonyl fluoride]	≥ 5	< 5
N#Cc1c(N)sc2c(F)ccc(-c3c(Cl)cc4c(N5CCCCC6(CN(C(=O)N7CC[C@H]7C#N)C6)C5)nc(OC[C@@]56CCCN5C[C@H](F)C6)nc4c3F)c12 [compound 224, (2S)-1-(6-(7-(2-amino-3-cyano-7-fluorobenzo[b]thiophen-4-yl)-6-chloro-8-fluoro-2-(((2R,7aS)-2-fluorotetrahydro-1H-pyrrolizin-7a(5H)-yl)methoxy)quinazolin-4-yl)-2,6-diazaspiro[3.6]decane-2-carbonyl)azetidine-2-carbonitrile]	< 5	< 5
N#Cc1c(N)sc2c(F)ccc(-c3c(Cl)cc4c(N5CCCCC6(CN(C(=O)C78CC(F)(C7)C8)C6)C5)nc(OC[C@@]56CCCN5C[C@H](F)C6)nc4c3F)c12 [compound 199, 2-amino-4-(6-chloro-8-fluoro-4-(2-(3-fluorobicyclo[1.1.1]pentane-1-carbonyl)-2,6-diazaspiro[3.6]decan-6-yl)-2-(((2R,7aS)-2-fluorotetrahydro-1H-pyrrolizin-7a(5H)-yl)methoxy)quinazolin-7-yl)-7-fluorobenzo[b]thiophene-3-carbonitrile]	< 5	< 5
C[C@@H](O)C(=O)N1CC2(CCCCN(c3nc(OC[C@@]45CCCN4C[C@H](F)C5)nc4c(F)c(-c5ccc(F)c6sc(N)c(C#N)c56)c(Cl)cc34)C2)C1 [compound 243, 2-amino-4-(6-chloro-8-fluoro-2-(((2R,7aS)-2-fluorotetrahydro-1H-pyrrolizin-7a(5H)-yl)methoxy)-4-(2-((R)-2-hydroxypropanoyl)-2,6-diazaspiro[3.6]decan-6-yl)quinazolin-7-yl)-7-fluorobenzo[b] thiophene-3-carbonitrile]	< 5	< 5
C[C@H](Oc1nc(N2CCCC3(CN(C(=O)[C@@H]4C[C@H]4F)C3)C2)c2cc(Cl)c(-c3ccc(F)c4sc(N)c(C#N)c34)c(F)c2n1)[C@@H]1CCCN1C [compound 126, 2-amino-4-(6-chloro-8-fluoro-4-(2-((1S,2R)-2-fluorocyclopropane-1-carbonyl)-2,6-diazaspiro[3.5]nonan-6-yl)-2-((S)-1-((S)-1-methylpyrrolidin-2-yl)ethoxy)quinazolin-7-yl)-7-fluorobenzo[b] thiophene-3-carbonitrile]	< 5	< 5
CC(C)=C(C#N)C(=O)N1CC2(C1)CN(c1nc(OC[C@@]34CCCN3C[C@H](F)C4)nc3c(F)c(-c4ccc(F)c5sc(N)c(C#N)c45)c(Cl)cc13)CCO2 [compound 245, 2-amino-4-(6-chloro-4-(2-(2-cyano-3-methylbut-2-enoyl)-5-oxa-2,8-diazaspiro[3.5]nonan-8-yl)-8-fluoro-2-(((2R,7aS)-2-fluorotetrahydro-1H-pyrrolizin-7a(5H)-yl)methoxy)quinazolin-7-yl)-7-fluorobenzo[b]thiophene-3-carbonitrile]	< 5	< 5
N#Cc1c(N)sc2c(F)ccc(-c3c(Cl)cc4c(N5CCCCC6(CN(C(=O)/C=C/C(F)(F)F)C6)C5)nc(OC[C@@]56CCCN5C[C@H](F)C6)nc4c3F)c12 [compound 207, 2-amino-4-(6-chloro-8-fluoro-2-(((2R,7aS)-2-fluorotetrahydro-1H-pyrrolizin-7a(5H)-yl)methoxy)-4-(2-((E)-4,4,4-trifluorobut-2-enoyl)-2,6-diazaspiro [3.6]decan-6-yl)quinazolin-7-yl)-7-fluorobenzo[b]thiophene-3-carbonitrile]	< 5	< 5
CN(C)C/C=C/C(=O)N1CC2(C1)CN(c1nc(OC[C@@]34CCCN3C[C@H](F)C4)nc3c(F)c(-c4ccc(F)c5sc(N)nc45)c(Cl)cc13)CCO2 [compound 178, (E)-1-(8-(7-(2-amino-7-fluorobenzo[d]thiazol-4-yl)-6-chloro-8-fluoro-2-(((2R,7aS)-2-fluorotetrahydro-1H-pyrrolizin-7a(5H)-yl)methoxy)quinazolin-4-yl)-5-oxa-2,8-diazaspiro[3.5]nonan-2-yl)-4-(dimethylamino)but-2-en-1-one]	< 5	< 5
N#Cc1c(N)sc2c(F)ccc(-c3c(Cl)cc4c(N5CCOCC6(CN(C(=O)[C@H]7CC7(F)F)C6)C5)nc(OC[C@@]56CCCN5C[C@H](F)C6)nc4c3F)c12 [compound 247, 2-amino-4-(6-chloro-4-(2-((R)-2,2-difluorocyclopropane-1-carbonyl)-6-oxa-2,9-diazaspiro[3.6]decan-9-yl)-8-fluoro-2-(((2R,7aS)-2-fluorotetrahydro-1H-pyrrolizin-7a(5H)-yl)methoxy)quinazolin-7-yl)-7-fluorobenzo[b]thiophene-3-carbonitrile]	< 5	< 5
N#Cc1c(N)sc2c(F)ccc(-c3c(Cl)cc4c(N5CCC6(CC5)CN(C(=O)C5CC5(F)F)C6)nc(OC[C@@]56CCCN5C[C@H](F)C6)nc4c3F)c12 (stereo partly drawn) [compound 131, 2-amino-4-(6-chloro-4-(2-(2,2-difluorocyclopropane-1-carbonyl)-2,7-diazaspiro[3.5]nonan-7-yl)-8-fluoro-2-(((2R,7aS)-2-fluorotetrahydro-1H-pyrrolizin-7a(5H)-yl)methoxy)quinazolin-7-yl)-7-fluorobenzo[b]thiophene-3-carbonitrile]	< 5	< 5
CN(C)C/C=C/C(=O)N1CC2(CCN(c3nc(OC[C@@]45CCCN4C[C@H](F)C5)nc4c(F)c(-c5ccc(F)c6sc(N)c(C#N)c56)c(Cl)cc34)C2)C1 [compound 183, 2-amino-4-(6-chloro-4-(2-((E)-4-(dimethylamino)but-2-enoyl)-2,6-diazaspiro[3.4]octan-6-yl)-8-fluoro-2-(((2R,7aS)-2-fluorotetrahydro-1H-pyrrolizin-7a(5H)-yl)methoxy)quinazolin-7-yl)-7-fluorobenzo[b]thiophene-3-carbonitrile]	< 5	< 5

Next, values leading:

IC50 [1] [µM]	IC50 [2] [µM]	SMILES
< 5	< 5	N#Cc1c(N)sc2c(F)ccc(-c3c(Cl)cc4c(N5CCCCC6(CN(C(=O)COC(F)(F)C(F)(F)F)C6)C5)nc(OC[C@@]56CCCN5C[C@H](F)C6)nc4c3F)c12 [compound 302, 2-amino-4-(6-chloro-8-fluoro-2-(((2R,7aS)-2-fluorotetrahydro-1H-pyrrolizin-7a(5H)-yl)methoxy)-4-(2-(2-(perfluoroethoxy)acetyl)-2,6-diazaspiro[3.6]decan-6-yl)quinazolin-7-yl)-7-fluorobenzo[b]thiophene-3-carbonitrile]
< 5	< 5	N#Cc1c(N)sc2c(F)ccc(-c3c(Cl)cc4c(N5CCC(CO)CC6(CN(C(=O)[C@@H]7CC7(F)F)C6)C5)nc(OC[C@@]56CCCN5C[C@H](F)C6)nc4c3F)c12 (stereo partly drawn) [compound 332, 2-amino-4-(6-chloro-4-(2-((S)-2,2-difluorocyclopropane-1-carbonyl)-9-(hydroxymethyl)-2,6-diazaspiro[3.6]decan-6-yl)-8-fluoro-2-(((2R,7aS)-2-fluorotetrahydro-1H-pyrrolizin-7a(5H)-yl)methoxy)quinazolin-7-yl)-7-fluorobenzo[b]thiophene-3-carbonitrile]
< 5	< 5	N#Cc1c(N)sc2c(F)ccc(-c3c(Cl)cc4c(N5CCCCC6(CN(C(=O)N7CC(C#N)C7)C6)C5)nc(OC[C@@]56CCCN5C[C@H](F)C6)nc4c3F)c12 [compound 274, 1-(6-(7-(2-amino-3-cyano-7-fluorobenzo[b]thiophen-4-yl)-6-chloro-8-fluoro-2-(((2R,7aS)-2-fluorotetrahydro-1H-pyrrolizin-7a(5H)-yl)methoxy)quinazolin-4-yl)-2,6-diazaspiro[3.6]decane-2-carbonyl)azetidine-3-carbonitrile]
< 5	< 5	N#Cc1c(N)sc2c(F)ccc(-c3c(Cl)cc4c(N5CCCCC6(CN(C(=O)C[C@@H]7CCOC7)C6)C5)nc(OC[C@@]56CCCN5C[C@H](F)C6)nc4c3F)c12 [compound 259, 2-amino-4-(6-chloro-8-fluoro-2-(((2R,7aS)-2-fluorotetrahydro-1H-pyrrolizin-7a(5H)-yl)methoxy)-4-(2-(2-((S)-tetrahydrofuran-3-yl)acetyl)-2,6-diazaspiro[3.6]decan-6-yl)quinazolin-7-yl)-7-fluorobenzo[b]thiophene-3-carbonitrile]
< 5	< 5	N#Cc1c(N)sc2c(F)ccc(-c3c(Cl)cc4c(N5CCC(F)(F)CC6(CN(C(=O)[C@@H]7C[C@H]7C#N)C6)C5)nc(OC[C@@]56CCCN5C[C@H](F)C6)nc4c3F)c12 [compound 342, 2-amino-4-(6-chloro-4-(2-((1R,2R)-2-cyanocyclopropane-1-carbonyl)-9,9-difluoro-2,6-diazaspiro[3.6]decan-6-yl)-8-fluoro-2-(((2R,7aS)-2-fluorotetrahydro-1H-pyrrolizin-7a(5H)-yl)methoxy)quinazolin-7-yl)-7-fluorobenzo[b]thiophene-3-carbonitrile]
< 5	< 5	C#Cc1c(F)ccc2cc(O)cc(-c3ncc4c(N5CCOCC6(CN(C(=O)[C@@H]7CC7(F)F)C6)C5)nc(OC[C@@]56CCCN5C[C@H](F)C6)nc4c3F)c12 [compound 301, ((S)-2,2-difluorocyclopropyl) (9-(7-(8-ethynyl-7-fluoro-3-hydroxynaphthalen-1-yl)-8-fluoro-2-(((2R,7aS)-2-fluorotetrahydro-1H-pyrrolizin-7a(5H)-yl)methoxy)pyrido[4,3-d]pyrimidin-4-yl)-6-oxa-2,9-diazaspiro[3.6]decan-2-yl)methanone]
